Source: PubChem BioAssay AID1963862 (Molecular Pharmacology Branch, DTP, NCI, 2024)

Tested on: KRAS patient-derived spheroids with HUVEC/MSC, viability
Assay: Anticancer human tumor 941728-121-R-J1-PDC patient-derived lung adenocarcinoma cell line growth inhibition [KRAS2]
Conditions: for viability, T/C: stronger effect = lower value
How it was run: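 Combination screen of spheroid viability in tumor-cell co-cultures with endothelial (HUVEC) and mesenchymal stem cell stroma. Each agent was tested in half-log dilutions, topping at clinical Cmax or at 10 microM without a known Cmax.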

[1] = curve of first compound, second compound 0.0316 µM
[2] = curve of first compound, second compound 0.1 µM
[3] = curve of first compound, second compound 0.316 µM
[4] = curve of first compound, second compound 1 µM
[5] = curve of first compound, second compound 3.16 µM
[6] = second compound 0.0316 µM, first compound 0.0316 µM
[7] = second compound 0.0316 µM, first compound 0.1 µM
[8] = second compound 0.0316 µM, first compound 0.316 µM
[9] = second compound 0.0316 µM, first compound 1 µM
[10] = second compound 0.0316 µM, first compound 3.16 µM
[11] = second compound 0.0316 µM, first compound 10 µM
[12] = second compound 0.1 µM, first compound 0.0316 µM
[13] = second compound 0.1 µM, first compound 0.1 µM
[14] = second compound 0.1 µM, first compound 0.316 µM
[15] = second compound 0.1 µM, first compound 1 µM
[16] = second compound 0.1 µM, first compound 3.16 µM
[17] = second compound 0.1 µM, first compound 10 µM
[18] = second compound 0.316 µM, first compound 0.0316 µM
[19] = second compound 0.316 µM, first compound 0.1 µM
[20] = second compound 0.316 µM, first compound 0.316 µM
[21] = second compound 0.316 µM, first compound 1 µM
[22] = second compound 0.316 µM, first compound 3.16 µM
[23] = second compound 0.316 µM, first compound 10 µM
[24] = second compound 1 µM, first compound 0.0316 µM
[25] = second compound 1 µM, first compound 0.1 µM
[26] = second compound 1 µM, first compound 0.316 µM
[27] = second compound 1 µM, first compound 1 µM
[28] = second compound 1 µM, first compound 3.16 µM
[29] = second compound 1 µM, first compound 10 µM
[30] = second compound 3.16 µM, first compound 0.0316 µM
[31] = second compound 3.16 µM, first compound 0.1 µM
[32] = second compound 3.16 µM, first compound 0.316 µM
[33] = second compound 3.16 µM, first compound 1 µM
[34] = second compound 3.16 µM, first compound 3.16 µM
[35] = second compound 3.16 µM, first compound 10 µM
[36] = second compound 0.1 µM, first compound 0.01 µM
[37] = second compound 0.316 µM, first compound 0.01 µM
[38] = second compound 1 µM, first compound 0.01 µM
[39] = second compound 3.16 µM, first compound 0.01 µM
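Note: spheroids exposed to agents for seven days before readout.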

Structure (SMILES): CC1OCC2(CCN(c3cnc(Sc4ccnc(N)c4Cl)c(N)n3)CC2)C1N (centres undefined) + C=CC(=O)N1CCN(c2nc(OCC3CCCN3C)nc3c2CCN(c2cccc4cccc(C)c24)C3)CC1CC#N
- IC50 [1]: < 31.6 nM
- IC50 [2]: < 31.6 nM
- IC50 [3]: < 31.6 nM
- IC50 [4]: < 31.6 nM
- IC50 [5]: < 31.6 nM
- viability, T/C [6]: 32.3%
- viability, T/C [7]: 28.9%
- viability, T/C [8]: 25.4%
- viability, T/C [9]: 26.4%
- viability, T/C [10]: 23.6%
- viability, T/C [11]: 18.4%
- viability, T/C [12]: 31.4%
- viability, T/C [13]: 28.9%
- viability, T/C [14]: 25.6%
- viability, T/C [15]: 26.3%
- viability, T/C [16]: 25.4%
- viability, T/C [17]: 20.6%
- viability, T/C [18]: 32.8%
- viability, T/C [19]: 30.8%
- viability, T/C [20]: 28%
- viability, T/C [21]: 26.9%
- viability, T/C [22]: 25.1%
- viability, T/C [23]: 23.7%
- viability, T/C [24]: 32.8%
- viability, T/C [25]: 34.8%
- viability, T/C [26]: 32.7%
- viability, T/C [27]: 28.2%
- viability, T/C [28]: 29.1%
- viability, T/C [29]: 28.4%
- viability, T/C [30]: 4.61%
- viability, T/C [31]: 10.1%
- viability, T/C [32]: 4.45%
- viability, T/C [33]: 4.43%
- viability, T/C [34]: 4.99%
- viability, T/C [35]: 9.3%

Structure (SMILES): O=C(c1cc(Cc2n[nH]c(=O)c3ccccc23)ccc1F)N1CCN(C(=O)C2CC2)CC1
- viability, T/C (compound 0.1 µM): 96.4% [middle of 5 runs]
- viability, T/C (compound 0.316 µM): 92.6% [middle of 5 runs]
- viability, T/C (compound 10 µM): 82% [middle of 5 runs]
- IC50 (curve of compound): > 10000 nM

Structure (SMILES): CC(=O)OC12COC1CC(O)C1(C)C(=O)C(O)C3=C(C)C(OC(=O)C(O)C(NC(=O)OC(C)(C)C)c4ccccc4)CC(O)(C(OC(=O)c4ccccc4)C21)C3(C)C (centres undefined) + C=CC(=O)N1CCN(c2nc(OCC3CCCN3C)nc3c2CCN(c2cccc4cccc(C)c24)C3)CC1CC#N
- IC50 [1]: < 10 nM
- IC50 [2]: < 10 nM
- IC50 [3]: < 10 nM
- IC50 [4]: < 10 nM
- IC50 [5]: < 10 nM
- viability, T/C (second compound 0.0316 µM, first compound 0.01 µM): 28.2%
- viability, T/C [6]: 28.4%
- viability, T/C [7]: 26.8%
- viability, T/C [8]: 25.7%
- viability, T/C [9]: 29.1%
- viability, T/C [10]: 26.7%
- viability, T/C [36]: 24.6%
- viability, T/C [12]: 22.2%
- viability, T/C [13]: 21.9%
- viability, T/C [14]: 22.9%
- viability, T/C [15]: 24.6%
- viability, T/C [16]: 26.2%
- viability, T/C [37]: 22.8%
- viability, T/C [18]: 21.6%
- viability, T/C [19]: 21.1%
- viability, T/C [20]: 22.1%
- viability, T/C [21]: 21.1%
- viability, T/C [22]: 24.4%
- viability, T/C [38]: 21.2%
- viability, T/C [24]: 23.4%
- viability, T/C [25]: 21.1%
- viability, T/C [26]: 19.8%
- viability, T/C [27]: 21.7%
- viability, T/C [28]: 20.8%
- viability, T/C [39]: 27.9%
- viability, T/C [30]: 33.1%
- viability, T/C [31]: 26.4%
- viability, T/C [32]: 27.3%
- viability, T/C [33]: 26.9%
- viability, T/C [34]: 27.9%

Structure (SMILES): Cn1ncnc1[C@H]1c2n[nH]c(=O)c3cc(F)cc(c23)N[C@@H]1c1ccc(F)cc1 + C=CC(=O)N1CCN(c2nc(=O)n(-c3c(C)ccnc3C(C)C)c3nc(-c4c(O)cccc4F)c(F)cc23)C(C)C1
- IC50 [2]: < 0.316 nM
- IC50 [3]: < 0.316 nM
- IC50 [4]: < 0.316 nM
- IC50 [5]: < 0.316 nM
- IC50 (curve of first compound, second compound 10 µM): < 0.316 nM
- viability, T/C (second compound 0.1 µM, first compound 0.000316 µM): 14.7%
- viability, T/C (second compound 0.1 µM, first compound 0.001 µM): 15.4%
- viability, T/C (second compound 0.1 µM, first compound 0.00316 µM): 13.9%
- viability, T/C [36]: 13.6%
- viability, T/C [12]: 13.5%
- viability, T/C [13]: 13.9%
- viability, T/C (second compound 0.316 µM, first compound 0.000316 µM): 17.4%
- viability, T/C (second compound 0.316 µM, first compound 0.001 µM): 14.9%
- viability, T/C (second compound 0.316 µM, first compound 0.00316 µM): 15.3%
- viability, T/C [37]: 14.8%
- viability, T/C [18]: 14.1%
- viability, T/C [19]: 14.1%
- viability, T/C (second compound 1 µM, first compound 0.000316 µM): 16%
- viability, T/C (second compound 1 µM, first compound 0.001 µM): 15.5%
- viability, T/C (second compound 1 µM, first compound 0.00316 µM): 17.6%
- viability, T/C [38]: 15.9%
- viability, T/C [24]: 15.9%
- viability, T/C [25]: 15.2%
- viability, T/C (second compound 3.16 µM, first compound 0.000316 µM): 15.8%
- viability, T/C (second compound 3.16 µM, first compound 0.001 µM): 18.3%
- viability, T/C (second compound 3.16 µM, first compound 0.00316 µM): 15.4%
- viability, T/C [39]: 17.4%
- viability, T/C [30]: 13.6%
- viability, T/C [31]: 14.9%
- viability, T/C (second compound 10 µM, first compound 0.000316 µM): 17.9%
- viability, T/C (second compound 10 µM, first compound 0.001 µM): 20.1%
- viability, T/C (second compound 10 µM, first compound 0.00316 µM): 17.3%
- viability, T/C (second compound 10 µM, first compound 0.01 µM): 17.3%
- viability, T/C (second compound 10 µM, first compound 0.0316 µM): 18.1%
- viability, T/C (second compound 10 µM, first compound 0.1 µM): 16.7%

Structure (SMILES): CC1(C)CCC(CN2CCN(c3ccc(C(=O)NS(=O)(=O)c4ccc(NCC5CCOCC5)c([N+](=O)[O-])c4)c(Oc4cnc5[nH]ccc5c4)c3)CC2)=C(c2ccc(Cl)cc2)C1 + C=CC(=O)N1CCN(c2nc(OCC3CCCN3C)nc3c2CCN(c2cccc4cccc(C)c24)C3)CC1CC#N
- IC50 [1]: < 31.6 nM
- IC50 [2]: < 31.6 nM
- IC50 [3]: < 31.6 nM
- IC50 [4]: < 31.6 nM
- IC50 [5]: < 31.6 nM
- viability, T/C [6]: 26.6%
- viability, T/C [7]: 26.4%
- viability, T/C [8]: 26.4%
- viability, T/C [9]: 24%
- viability, T/C [10]: 6%
- viability, T/C [11]: 4.38%
- viability, T/C [12]: 26.5%
- viability, T/C [13]: 23.7%
- viability, T/C [14]: 24.9%
- viability, T/C [15]: 25.1%
- viability, T/C [16]: 5.88%
- viability, T/C [17]: 2.8%
- viability, T/C [18]: 25.2%
- viability, T/C [19]: 25.5%
- viability, T/C [20]: 25%
- viability, T/C [21]: 25.8%
- viability, T/C [22]: 5.25%
- viability, T/C [23]: 3.74%
- viability, T/C [24]: 22.6%
- viability, T/C [25]: 21.4%
- viability, T/C [26]: 21.4%
- viability, T/C [27]: 21.4%
- viability, T/C [28]: 5.13%
- viability, T/C [29]: 1.61%
- viability, T/C [30]: 0.12%
- viability, T/C [31]: 0.13%
- viability, T/C [32]: 0.1%
- viability, T/C [33]: 0.09%
- viability, T/C [34]: 0.08%
- viability, T/C [35]: 0.12%
